Here are results for 80 compounds from the METLIN SMRT retention time set (Domingo-Almenara et al. 2019).

The nature of the data set: gradient 5% acetonitrile 3 min, to 50% in 2 min, to 85% in 15 min, held 3 min, 100 µL/min. To be noted: column: Zorbax Extend-C18 2.1 x 50 mm; eluents: water / acetonitrile, 0.1% formic acid. An outline of the steps: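 Data were gathered over 3 months by HPLC coupled to a quadrupole time-of-flight mass spectrometer, operated in positive and negative ionization mode. Mixtures of ~100 pure standards ran on a Zorbax Extend-C18 column (2.1 × 50 mm, 1.8 μm) at 100 μL/min, with water and acetonitrile each containing 0.1% formic acid and dead and dwell volumes of 40 μL and 900 μL. Retention time was read from adduct peaks picked by computer and checked manually.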
Compound `CCOC(=O)C1=C(CN2CCN(c3ccccc3F)CC2)NC(=O)NC1c1cccc(OC)c1OC` (stereo not given) displayed an RP-LC retention time of 730 s. In turn, `COCc1noc([C@@H]2CN(C(=O)C3(c4ccccc4)CC3)C[C@H]2CO)n1` gave an RP-LC retention time of 676 s.

Consider `COc1ccc2c(=O)c(Oc3ccccc3F)c(C)oc2c1`, for which the RP-LC retention time was found to be 888 s.

Compound `CCc1cc(-c2csc(S(=O)(=O)NCCCc3ccccc3)c2)on1` displayed an RP-LC retention time of 1060 s. The compound `CCCNC(=O)c1cc2c(-c3cccs3)nn(-c3ccccc3)c2n1C` yielded an RP-LC retention time of 953 s.

As for `CC(C)n1nnc2cc(C(=O)N(C)CC(=O)Nc3ccc(Br)cc3F)ccc21`, the RP-LC retention time is 803 s. For `Cc1ccc(C)c(CNC(=O)c2c(C)sc3ccn(C)c(=O)c23)c1` the value was 848 s; for `N#Cc1cc(-c2ccccc2)[nH]c1-c1nccc2ccccc12`, 981 s.

`COc1ccc(N2CCN(c3cc(SCC(=O)NC4CCCCC4)ncn3)CC2)cc1` had an RP-LC retention time of 875 s. The same measure for `O=C(Nc1ccccc1)N1CC(c2nc3ccccc3[nH]2)C1`: 548 s. As to `Cc1ccc(NC(=O)Nc2ccc3nncn3c2)cc1F`, the RP-LC retention time is 723 s. For `CCc1ccc2oc(C(=O)NCC(c3ccc(OC)cc3)N(C)C)cc(=O)c2c1` (stereo not given) the value was 656 s.

`CCOC(=O)C1CCN(c2nc(-c3ccc(OC)cc3)nc3ccccc23)CC1` displayed an RP-LC retention time of 790 s. For `CCC(=O)N1c2ccc(S(=O)(=O)N3CCCCC3)cc2CC1C(=O)NC1CCCCCC1` (stereo not given) the value was 1010 s; for `CCc1cccc(NC(=O)C2(C)CCCCC(=O)N2)c1` (stereo not given), 753 s. The same measure for `O=C1CC(c2ccccc2)Oc2ccccc21` (stereo not given): 932 s; for `CCc1ccc(NS(=O)(=O)c2ccc3c(c2)C(=O)N(C)c2ncccc2O3)cc1`: 1010 s. The same measure for `Cc1ccn2cc(-c3ccc(NS(=O)(=O)c4ccc(C)c(C)c4)cc3)nc2n1`: 682 s.

Regarding `CCc1ccccc1NC(=O)c1cn(CC2CCCO2)cc2c(=O)n(-c3ccccc3)nc1-2` (stereo not given), the RP-LC retention time turned out to be 1060 s.

On to `COC(=O)c1c(C)[nH]c(C(=O)N2CCC(CC(=O)NCCc3ccco3)CC2)c1C`, for which the RP-LC retention time turned out to be 683 s. Turning to `Cc1ccccc1NC(=O)c1ccc(=O)n(CCN2CCCC2)c1`, the RP-LC retention time is 584 s. For `Cn1c(N)c(C(=O)c2ccco2)c(=O)n(C)c1=O` the value was 560 s.

`Cc1ccc(-c2nnc(-c3nc(NCCC4=CCCCC4)c4ccccc4n3)o2)cc1` had an RP-LC retention time of 1300 s. For `CN(C)c1ccc(C(CNC(=O)c2ccc(Br)o2)N2CCCC2)cc1` (stereo not given) the value was 572 s; for `Cc1nn(C)c(=O)c2cc(S(=O)(=O)NCc3ccco3)cn12`, 718 s. `CCc1nc(OCC(=O)NCc2ccc(C)cc2)c2c(C)c(C)oc2n1` yielded an RP-LC retention time of 999 s. The same measure for `COc1ccc(NC(=O)CSc2ccc(N3CCCC(C(=O)NC4CC4)C3)nn2)c(OC)c1` (stereo not given): 642 s; for `COc1cccc(-c2noc(C3CCCN3C(=O)Nc3ccc(OC)c(OC)c3)n2)c1` (stereo not given): 855 s.

`Cc1ccc2cc(CCC(=O)NCCCN3CCCC(C)C3)c(=O)[nH]c2c1` (stereo not given) showed an RP-LC retention time of 605 s. The same measure for `O=C(c1ccc2c(c1)OCO2)N1CCN(c2ccc(=O)n(-c3ccc(Cl)cc3)n2)CC1`: 791 s. The same measure for `COc1cccc(NC(=O)Cn2c(C(F)(F)F)nc3cc4c(cc32)OCCO4)c1`: 841 s; for `CN1C(=O)c2cc(C(=O)NCc3ccc(F)cc3)nn2CC1(C)C(=O)NC1CCCC1` (stereo not given): 747 s; for `Cc1nn(-c2ccccc2)c2c1N(CCCC(=O)NCCN(C)C)C(=O)CS2`: 602 s.

As for `CCOC(=O)c1ccc(N2C=C(C#N)S(=O)(=O)c3c(F)cccc32)cc1`, the RP-LC retention time came to 930 s. With `O=C(Cn1cnc2nc3c(cc2c1=O)CCCC3)Nc1ccc(Cl)cc1`, the RP-LC retention time is 761 s. Consider `Cc1nc(-c2cn(-c3cccc(F)c3)nn2)no1`, for which the RP-LC retention time came to 805 s. The same measure for `O=C(NCC1CCN(Cc2cccs2)CC1)C(=O)Nc1ccc(C(F)(F)F)cc1`: 603 s; for `Cc1cc(C)c(S(=O)(=O)N2CCCC2c2nc(-c3ccc(Cl)cc3)no2)c(C)c1` (stereo not given): 1360 s; for `O=C(Nc1ccc(C2(C(=O)NCc3cccc(Cl)c3)CCC2)cc1)C1CC1`: 891 s. The same measure for `CCc1nn(CC(=O)N2CCN(c3ccccn3)CC2)c(=O)c2cc3sccc3n12`: 612 s; for `CCc1ccccc1NC(=O)Cn1cnc2c(sc3nc(-c4ccccc4)ccc32)c1=O`: 1030 s; for `CCOc1ccc(CCNC(=O)C2CCCN2C(=O)OCc2ccccc2)cc1OCC` (stereo not given): 890 s. For `CCn1c(C(=O)NCCN2CCCCC2C)c(N2CCCC2=O)c2cc(OC)ccc21` (stereo not given) the value was 637 s; for `O=C(Cn1nc2c(Oc3ccc(F)cc3)nccn2c1=O)NC1CCCCC1`, 804 s; for `CCCS(=O)(=O)c1nc2ccc(NS(=O)(=O)Cc3cc(C)ccc3C)cc2s1`, 1040 s. On to `CC1CC(C)CN(CCCNC(=O)Cn2ncc3c4ccccc4n(C)c3c2=O)C1` (stereo not given), for which the RP-LC retention time turned out to be 659 s. For `CC1CCC2(CC1)NC(=O)N(CC(=O)NCCc1ccc(Cl)cc1)C2=O` (stereo not given) the value was 863 s; for `CCc1ccc(-n2ncc3c(=O)n(Cc4nc(-c5ccc(OC)c(OC)c5)no4)cnc32)cc1`, 1060 s; for `Cc1cccc(Sc2nccnc2N2CCC(C(=O)NCc3cccc(Cl)c3)CC2)c1`, 1150 s. Consider `CC1CCCCC1NC(=O)C1(C)Cn2c(cc3occc32)C(=O)N1Cc1cccnc1` (stereo not given), for which the RP-LC retention time was 659 s.

Turning to `CCc1nc2oc3cc(OC)ccc3c(=O)c2c(=O)n1-c1ccc(C)cc1`, the RP-LC retention time amounted to 809 s. For `O=C(CN1CCN(Cc2ccccc2F)C1=O)NCc1ccc(N2CCCC2)cc1` the value was 783 s; for `CN1C(=O)CCCCC1C(=O)N1CCOCC1` (stereo not given), 556 s. The same measure for `COC1CCC12CCN(Cc1ccccc1C#N)CC2` (stereo not given): 603 s; for `CC(C)NC(=O)c1ccc(OCC2CCCN(C(=O)Cc3cccc(F)c3)C2)cc1` (stereo not given): 955 s; for `CC(C)C(=O)NCCn1c(=O)n(Cc2ccccc2)c2cccnc21`: 714 s. For `CC(C)NC(=O)c1ccc(OCC2CCN(C(=O)Cc3cccc(F)c3)CC2)cc1`, the RP-LC retention time was found to be 845 s. For `CC(C)c1cc(C(=O)Nc2ccc(Cl)cc2F)no1` the value was 1140 s; for `CC(=O)Nc1ccc(SCc2nnc(-c3ccccc3)o2)cc1`, 763 s. For `COCCn1ccc2nc(C)c(C(=O)NCc3ccc(SC)cc3)cc2c1=O` the value was 712 s; for `O=C(Nc1cccc(OCc2nnc(-c3ccc(Cl)cc3)o2)c1)c1ccccn1`, 1070 s; for `Cc1cc2nn(CC(=O)Nc3ccccc3)c(=O)n2c(Nc2ccccc2)n1`, 965 s. For `CC(=O)N1CCCc2cc(S(=O)(=O)N3CCC(C(=O)Nc4cccc(C)n4)CC3)ccc21` the value was 684 s; for `Cn1nc(C(=O)Nc2ccccc2)c2c1CCN(C(=O)CCC(=O)N1CCOCC1)C2`, 668 s.

Regarding `CC(=O)c1sc2nc(SC/C=C/c3ccccc3)[nH]c(=O)c2c1C`, the RP-LC retention time is 977 s. Take `CCN1C(=O)c2cc(S(=O)(=O)Nc3cccc(C)c3C)ccc2Oc2cccnc21`: the RP-LC retention time turned out to be 1030 s. The same measure for `Cc1ccc(NC(=O)Cn2nc3n(c2=O)CCCCC3)cc1`: 708 s; for `CN(C)CCNC(=O)c1ccc(CS(=O)c2ccc(Br)cc2)o1` (stereo not given): 590 s. For `O=C(CCc1nnc2ccc(NCc3ccc(F)cc3)nn12)N1CCN(c2ccccn2)CC1` the value was 612 s; for `Cc1cccc(C)c1-n1ccn(Cc2nc(-c3ccc(F)cc3)no2)c(=O)c1=O`, 884 s; for `O=C(OCc1cc(-c2ccc3c(c2)OCCO3)on1)c1ccc(Br)o1`, 978 s. With `O=S(=O)(Nc1cc(F)cc(F)c1)c1ccc(-c2nnc(C3CCC3)o2)o1`, the RP-LC retention time stood at 930 s. Take `COc1ccc2c(=O)c(C(=O)c3ccncc3)cn(CC(=O)NC3CCCCC3)c2c1`: the RP-LC retention time worked out at 655 s.

As to `CN(CCc1noc(COc2ccc(Cl)cc2Cl)n1)C(=O)c1ccco1`, the RP-LC retention time came to 898 s.

Regarding `CCc1nc(NC(=O)Cn2nc3c(cc2=O)CCCCC3)sc1C`, the RP-LC retention time worked out at 828 s. For `Cc1cccc(CC(=O)N2C[C@@H]3C[C@H]2C[C@@H]3NS(C)(=O)=O)c1` the value was 673 s; for `CCOC(=O)c1cc(C2CC2)nc2c1c(=O)n(Cc1cccc(F)c1)c(=O)n2C`, 1160 s; for `COC(=O)c1ccc2c(=O)n(Cc3ccc(F)cc3)c(N3CCC(C(N)=O)CC3)nc2c1`, 777 s.

`Cc1ccc(C)c(N2CCN(c3ncc(S(=O)(=O)c4ccccc4)c(N)n3)CC2)c1` had an RP-LC retention time of 1230 s. On to `CC(C)N(CC#CCNC(=O)Cc1ccccc1Cl)C(C)C`, for which the RP-LC retention time was 566 s.
